US20160095925A1 (CADILA HEALTHCARE LIMITED, priority 2014, published 2016)
Read-outs that look alike come from different tables or passages of the source.

Key:
[1] = cited from earlier work
[2] = formation of RGU increased in acidic and basic conditions; cited from earlier work
[3] = Analytical results of Azacitidine (API), untreated and gamma radiated: description, related substances; assay type: physicochemical

In the case of `Nc1ncn([C@@H]2O[C@H](CO)[C@@H](O)[C@H]2O)c(=O)n1` [Azacitidine, 4-amino-1-β-D-ribofuranosyl-1,3,5-triazin-2(1H)-one], the Solubility ([1]; 5% Tween 80 in water) is listed as “sparingly soluble”, the Solubility ([1]; 5% dextrose in water) is listed as “sparingly soluble” and the Solubility ([1]; N-methyl-2-pyrrolidone) is listed as “sparingly soluble”. The Solubility ([1]; acetone) was “insoluble”, the Solubility ([1]; dimethylsulfoxide (DMSO)) was “soluble” and the Solubility ([1]; ethanol/water (50/50)) was “slightly soluble”. The Solubility ([1]; ethanol) was “insoluble”, the Solubility ([1]; methyl ethyl ketone) was “insoluble” and the Solubility ([1]; normal saline) was “sparingly soluble”. The Solubility ([1]; polyethylene glycol) was “slightly soluble”, the Solubility ([1]; propylene glycol) was “slightly soluble” and the Solubility ([1]; water saturated octanol) was “sparingly soluble”. For the same compound, the Solubility ([1]; water) was “sparingly soluble”, the “Optimal pH for stable formulation” value [2] was 6-7 and the Description ([3]; gamma radiated) was “White to off”. For the same compound, the “Related Substances: Single max. impurity” value ([3]; gamma radiated) was 0.05%, the “Related Substances: Total impurities” value ([3]; gamma radiated) was 0.24% and the Description ([3]; untreated) was “White to off”. For the same compound, the “Related Substances: Single max. impurity” value ([3]; untreated) was 0.04% and the “Related Substances: Total impurities” value ([3]; untreated) was 0.19%.
